Tests used:
[1] = test system: mitochondrial membrane potential; test: mitochondrial uncoupling (protonophore), decrease of mitochondrial membrane potential; conditions: causes decrease in mitochondrial membrane potential and reduction of ROS production by mitochondria
[2] = test system: isolated mitochondria or live cultures of human cells; conditions: cited from earlier work
isolated mitochondria = conditions: cited from earlier work
[3] = relative to the antioxidant concentrations; cited from earlier work
[4] = fluorescent uncoupler activity
Description: (§1) Dibromoalkanes (60, 61) were heated with (triphenyl)phosphine in benzene at 80° C., and the obtained bromoalkyl(triphenyl)phosphonium bromides (62, 63) were reacted with fluorescein in the presence of sodium carbonate. As a result, bromides of {4-[2-(6-hydroxy-3-oxo-3H-xanthen-9-yl)benzoyloxy]butyl}(triphenyl)phosphonium (64) and {10-[2-(6-hydroxy-3-oxo-3H-xanthen-9-yl)benzoyloxy]decyl}(triphenyl)phosphonium (65).

[5] = neuroprotective and nephroprotective properties
Description: as §1

## CCCCCCCCCCOC(=O)c1ccccc1-c1c2cc(C)/c(=N/CC)cc-2oc2cc(NCC)c(C)cc12 [Compound 28, decyl 2-[(3E)-6-(ethylamino)-3-(ethylimino)-2,7-dimethyl-3H-xanthen-9-yl]benzoate]
[1]
  mitochondrial uncoupling (protonophore) activity: soft cationic mitochondrial uncouplers (protonophores)

## CCCCCCCCCCCCOC(=O)c1ccccc1-c1c2cc(C)/c(=N/CC)cc-2oc2cc(NCC)c(C)cc12 [Compound 29, dodecyl 2-[(3E)-6-(ethylamino)-3-(ethylimino)-2,7-dimethyl-3H-xanthen-9-yl]benzoate]
[1]
  mitochondrial uncoupling (protonophore) activity: soft cationic mitochondrial uncouplers (protonophores)

## COc1ccc2c(CC(=O)OCCCCCCCCCC3=CC(=O)C(C)=C(C)C3=O)c3[n+](cc2c1OC)CCc1cc2c(cc1-3)OCO2 [SkQBerb, 21-(2-{[9-(4,5-dimethyl-3,6-dioxocyclohexa-1,4-dien-1-yl)nonyl]oxy}-2-oxoethyl)-16,17-dimethoxy-5,7-dioxa-13λ^5-azapentacyclo[11.8.0.0^21.0.0^4.8.0^15.20]henicosa-1(21),2,4(8),9,13,15(20),16,18-octaen-13-ylium]
[2]
  accumulation in isolated mitochondria or live human cells: accumulate in isolated mitochondria or live cultures of human cells
Isolated mitochondria
  inhibition of lipid peroxidation: inhibit lipid peroxidation in isolated mitochondria in nanomolar concentrations
[3]
  prooxidant effect: manifested at significantly higher concentrations

## COc1cc2c(cc1OC)-c1c(CC(=O)OCCCCCCCCCC3=CC(=O)C(C)=C(C)C3=O)c3ccc(OC)c(OC)c3c[n+]1CC2 [SkQPalm, 13-(2-{[9-(4,5-dimethyl-3,6-dioxocyclohexa-1,4-dien-1-yl)nonyl]oxy}-2-oxoethyl)-3,4,10,11-tetramethoxy-7,8-dihydro-6λ^5-azatetraphen-6-ylium]
[2]
  accumulation in isolated mitochondria or live human cells: accumulate in isolated mitochondria or live cultures of human cells
Isolated mitochondria
  inhibition of lipid peroxidation: inhibit lipid peroxidation in isolated mitochondria in nanomolar concentrations
[3]
  prooxidant effect: manifested at significantly higher concentrations

## CC/N=c1/cc2oc3cc(NCC)c(C)cc3c(-c3ccccc3C(=O)OCCCCCCCCCCC3=CC(=O)C(C)=C(C)C3=O)c-2cc1C.Cl [SkQR1]
[1]
  mitochondrial uncoupling (protonophore) activity: soft cationic mitochondrial uncouplers (protonophores)

## {4-[2-(6-hydroxy-3-oxo-3H-xanthen-9-yl)benzoyloxy]butyl}(triphenyl)phosphonium [Compound 64]
[4]
  uncoupler activity: fluorescent uncouplers
[5]
  neuroprotective and nephroprotective properties: neuroprotective and nephroprotective properties

## {10-[2-(6-hydroxy-3-oxo-3H-xanthen-9-yl)benzoyloxy]decyl}(triphenyl)phosphonium [Compound 65]
[4]
  uncoupler activity: fluorescent uncouplers
[5]
  neuroprotective and nephroprotective properties: neuroprotective and nephroprotective properties
